Measured values from article PMC6611227 (Frontiers in Microbiology, 2019).

Molecular target: T1, StDHODH (dihydroorotate dehydrogenase) (Solanum tuberosum, UniProt M1BCR0, I273V/I299V/P120T/P359Q)
T1 construct: gene LOC102578881
T1 sequence (M1BCR0 70-460 P120T/I273V/I299V/P359Q): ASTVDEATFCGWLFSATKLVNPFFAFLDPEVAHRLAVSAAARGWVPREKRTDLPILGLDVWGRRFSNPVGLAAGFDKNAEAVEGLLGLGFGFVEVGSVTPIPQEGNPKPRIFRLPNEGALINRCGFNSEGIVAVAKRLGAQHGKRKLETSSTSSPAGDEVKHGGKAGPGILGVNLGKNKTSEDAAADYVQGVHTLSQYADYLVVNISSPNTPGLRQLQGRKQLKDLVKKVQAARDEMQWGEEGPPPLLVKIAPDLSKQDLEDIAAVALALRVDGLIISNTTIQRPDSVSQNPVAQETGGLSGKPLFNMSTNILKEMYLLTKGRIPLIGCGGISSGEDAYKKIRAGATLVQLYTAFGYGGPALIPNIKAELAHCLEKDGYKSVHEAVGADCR
Assay: biochemical
Details: read-out: Activity % StDHODH

COc1c(-c2ccccc2)ccc(NC(=O)C(C#N)=C(C)O)c1Cl [compound 19, N-(3-chloro-2-methoxybiphenyl-4-yl)-2-cyano-3-hydroxybut-2-enamide] showed an activity at 500 µM of 0%.
